# Assay results: patent US9920383B2, “Active substances for increasing the stress defense in plants to abiotic stress, and methods of finding them” (Bayer Intellectual Property GMBH, priority 2005, dated 2018)
# Assays:
# Test in all cases: Gene expression profiling (maize genome array), drought stress
# Format in all cases: in vivo, maize cv. Lorenzo
# Conditions in all cases: vs unstressed solvent-dressed control
# [1] = tested on: Zm.3633.4.A1_at wound induced protein (fragment)
# Protocol: (§1) Maize seeds cv. Lorenzo were dressed as described in example 1 with the compound VIII-3 (=4-cyclopropylaminocarbonyl-N-(2-methoxybenzoyl)benzenesulfonamide) or with solvent. The plants were raised for 10 days in a controlled-environment chamber (conditions: see example 1).
# (§2) Thereafter, the plants were exposed to the following stress conditions: • (1) Heat stress: 6 h at 45° C. • (2) Drought stress: 7 days without irrigation, 24° C.
# (§3) The control plants of the specific experimental group were kept under the standard conditions described in example 1 (temperature, irrigation).
# (§4) After the stress treatment, the leaves of the stressed plants and of the unstressed control plants were harvested, shock-frozen in liquid nitrogen and stored at −80° C. until processed. All experiments were carried out in replications of in each case 2 pots.
# (§5) The labeled RNA probes for the DNA chip hybridization were prepared as described in the protocols (Expression Analysis. Technical Manual) from Affymetrix (Affymetrix Inc., 3380 Central Expressway, Santa Clara, Calif., USA). First, total RNA was isolated from in each case 500 mg of the harvested leaves. In each case 10 μg of total RNA were used for the cDNA first- and second-strand synthesis. The cDNA was amplified with T7 polymerase and simultaneously labeled with biotin-UTP. In each case 20 μg of this biotinylated […] were employed for the hybridization of the maize genome array from Affymetrix. This DNA microarray contains DNA sequences whose totality represents 13339 genes. Thereafter, the DNA microarrays were washed in the Affymetrix Fluidics Station, stained with streptavidin/phycoerythrin (Molecular Probes, P/N S-866) and scanned with the appropriate Agilent Laser Scanner (Agilent Gene Array Scanner). The fluorescence data obtained were analyzed using Affymetrix's Microarray Suite 5 software. After the quality assurance had been performed, all DNA chip analyses were stored in a database. To determine relevant expression values (induction factors, repression factors), the absolute expression values of the genes from the respective stress experiments were compared with the values of the respective control experiments (i.e. without abiotic stress and solvent-dressing only), based on the scoring function predetermined by the Affymetrix software. The resulting 4 expression values per gene were averaged by calculating the median value. These median values are shown in the results tables as induction factors. Similarity comparisons of expression profiles of various experiments and cluster analyses were carried out using the “genedata expressionist” software from Genedata (Genedata, Maulbeerstr. 46, CH-4016 Basel, Switzerland).
# (§6) The induction patterns derived from table 5 and which are shown directly by the resulting expression values show characteristic inductions by the action of the compound 4-cyclopropylaminocarbonyl-N-(2-methoxybenzoyl)benzenesulfonamide (=VIII-3), the effect on the putative N-carbamyl-L-amino acid amidohydrolase [Zm.11840.1.A1_at] and on the putative serine carboxypeptidase [Zm18994.2.A1-at] being most pronounced. • b) Under dried stress conditions, i.e. the tested maize plants (dressed with 2 mg a.i. 4-cyclopropylaminocarbonyl-N-(2-methoxybenzoyl)benzenesulfonamide/g seeds) were exposed to a temperature of 24° C. for 7 hours 7 days after germination.
# (§7) • Condition A: drought stress (7 days, 24° C.) • Condition B: Seeds dressed with 4-cyclopropylaminocarbonyl-N-(2-methoxybenzoyl)benzenesulfonamide (VIII-3)/NO drought stress • Condition C: Seeds dressed with 4-cyclopropylaminocarbonyl-N-(2-methoxybenzoyl)benzenesulfonamide (VIII-3)+drought stress (7 days, 24° C.).
# [2] = tested on: Zm.12035.1.A1_at similar to AT3G10120
# Protocol: as §1, §2, §3, §4, §5, §6, §7
# [3] = tested on: Zm.10097.1.A1_at expressed protein
# Protocol: as §1, §2, §3, §4, §5, §6, §7
# [4] = tested on: Zm.18682.1.A1_at unknown protein
# Protocol: as §1, §2, §3, §4, §5, §6, §7
# [5] = tested on: Zm.18273.1.S1_at regulatory protein-like
# Protocol: as §1, §2, §3, §4, §5, §6, §7
# [6] = tested on: Zm.485.1.A1_at non-symbiotic hemoglobin (HBT) (ZEAMP GLB1)
# Protocol: as §1, §2, §3, §4, §5, §6, §7
# [7] = seeds dressed with VIII-3 (2 mg a.i./g seeds), NO drought stress
# [8] = seeds dressed with VIII-3 + drought stress (7 days, 24° C.)
smiles,measurement,setting,value
"COc1ccccc1C(=O)NS(=O)(=O)c1ccc(C(=O)NC2CC2)cc1 [VIII-3, 4-cyclopropylaminocarbonyl-N-(2-methoxybenzoyl)benzenesulfonamide]","induction factor Zm.3633.4.A1_at, Condition B",[1]; [7],0.74
same,"induction factor Zm.3633.4.A1_at, Condition C",[1]; [8],3.03
same,"induction factor Zm.12035.1.A1_at, Condition B",[2]; [7],0.90
same,"induction factor Zm.12035.1.A1_at, Condition C",[2]; [8],3.66
same,"induction factor Zm.10097.1.A1_at, Condition B",[3]; [7],1.27
same,"induction factor Zm.10097.1.A1_at, Condition C",[3]; [8],3.29
same,"induction factor Zm.18682.1.A1_at, Condition B",[4]; [7],1.12
same,"induction factor Zm.18682.1.A1_at, Condition C",[4]; [8],4.19
same,"induction factor Zm.18273.1.S1_at, Condition B",[5]; [7],0.95
same,"induction factor Zm.18273.1.S1_at, Condition C",[5]; [8],2.91
same,"induction factor Zm.485.1.A1_at, Condition B",[6]; [7],1.00
same,"induction factor Zm.485.1.A1_at, Condition C",[6]; [8],5.49
